Experimental data taken from US10416163B2, “Method and treatment of recurring endometrial cancer with an inhibitor of USP14” (Regents of the University of Minnesota, priority 2016, dated 2019).
Read-outs that look alike come from different tables or passages of the source.

Assays:
[1] = tested on: HEC155 endometrial cancer cells; experiment: Cell cycle distribution by propidium iodide flow cytometry, HEC155; type: cell-based; conditions: HEC155, 300 nM, 24 hours
Protocol: (§1) Cell cycle status following treatment with drug or vehicle alone was determined via flow cytometry analysis. Specifically, cells were harvested at indicated time points and fixed in 70% ethanol on ice for 2 hours. Following washing with PBS, cells were stained with 0.1% (m/v) propidium iodide in PBS-T. Apoptosis was measured using antibodies against active Caspase-3 (BD Pharmingen) or Annexin V (BD Pharmingen) which were combined with propidium iodide staining (Sigma-Aldrich). For apoptosis assays, samples were fixed and stained according to manufacturer's instructions. Fluorescence was measured with a FACSCantoII flow cytometer (Becton Dickinson) and analyzed with FlowJo software.
(§2) The USP14 modulates levels of cell cycle regulatory proteins whose dysregulation is expected to affect the cell cycle. This is further supported by the findings showing a strong correlation between USP14 and Ki67 staining in clinical specimens of endometrial cancer. Thus, the hypothesis that inhibition of USP14 would result in endometrial cancer cells failing to progress through the cell cycle was tested. To this end, HEC155 and ECC1 endometrial cancer cells were incubated with the USP14 inhibitor VLX1570 over a period of 24 hours and the cell cycle status was analyzed by flow cytometry after staining with propidium iodide. […]

[2] = tested on: HEC155 endometrial cancer cells; experiment: Apoptosis by flow cytometry (active caspase-3, Annexin V, propidium iodide), HEC155; type: cell-based
Protocol: as §1
(§3) Next, the fate of ECC1 and HEC155 endometrial cancer cells following VLX1570-induced cell cycle arrest was evaluated. Specifically, it was tested whether the reduction in cell viability following drug treatment is consistent with onset of apoptosis. The expression levels of active caspase-3 in control versus VLX1570 treated cells was measured. Importantly, caspase-3 is an active cell-death protease involved in the execution phase of apoptosis, where cells undergo morphological changes such as DNA fragmentation, chromatin condensation and apoptotic body formation.
(§4) Similarly, the fraction of cells taking up propidium iodide, a feature of both advanced apoptosis and necrosis, is elevated in […]. These findings support the hypothesis that pharmacological inhibition of USP14 triggers apoptosis in endometrial cancer cells.

[3] = tested on: ECC1 endometrial cancer cell line; experiment: Cell viability assay (WST-1), ECC1; type: cell-based; conditions: for IC50: ECC1, 48 hours exposure
Protocol: (§5) Cell viability was determined by 2,3-bis[2-methoxy-4-nitro-5-sulfophenyl]-2H-tetrazolium-5-carboxanilide inner salt assay as previously described. Briefly, cells were seeded at the concentration of 1.000 per well in 100 μL medium in 96-well plate and treated with the indicated concentrations of drugs. At the indicated time points, cells were incubated according to the manufacturer's protocol with the WST-1 labeling mixture for 2 hours. Formazan dye was quantified using a spectrophotometric plate reader to measure the absorbance at 450 nm (ELISA reader 190; Molecular Devices).
(§6) The next step was to investigate whether USP14 is a molecular target for endometrial cancer cells. To this end, the expression levels of USP14 in a panel of endometrial cancer cell lines including HEC155, EFE184 and ECC1 was first measured. These cells were chosen as they represent the most aggressive and most likely to recur endometrial cancer types. As shown in FIG. 4A (left panel), all cell lines tested expressed USP14 with HEC155 and ECC1 having the highest levels. Next. ECC1 and HEC155 endometrial cancer cells were exposed to increasing concentrations of the small-molecule inhibitor […] and the residual cell viability was measured after a period of 48 hours.
(§7) In the clinical setting, recurrent endometrial cancer is usually resistant to chemotherapy. Previous studies have reported that among endometrial cancer cell lines, HEC155 and ECC1 have the highest levels of LCAM, a marker for endometrial cancer recurrence. […] Thus, the IC50 levels for carboplatin treatment of HEC155 and ECC1 cells was measured.

[4] = tested on: ES-2 ovarian cancer cells; experiment: Cell viability of sensitive and carboplatin-resistant ES-2; type: cell-based
Protocol: (§8) FIG. 11. COV362 and ES-2 carboplatin-resistant clones. Residual cell viability of sensitive and resistant COV362 and ES-2 ovarian cancer cells exposed to the indicated concentrations of carboplatin over a period of 48 hours.
(§9) FIG. 12. Carboplatin resistant COV362 and ES-2 ovarian cancer cells are sensitive to USP14 inhibition. Residual cell viability of resistant COV362 and ES-2 ovarian cancer cells exposed to the indicated concentrations of the FDA approved USP14 inhibitor VLX1570 over a period of 48 hours. The structure of VLX1570 is:
(§10) Carboplatin-resistant ovarian cancer cell lines are sensitive to pharmacological inhibition of USP14. Two ovarian cancer cell lines, COV-362 and ES-2 were exposed to carboplatin according to the method described in FIG. 9 and the resulting USP14 overexpressing clones were subjected to cell viability assay to assess the extent of chemoresistance. […] Next, the sensitivity of COV362 and ES-2 resistant clones to the FDA approved USP14 inhibitor VLX1570 was determined.

[5] = tested on: ubiquitin-dependent protein degradation in ECC1 cells; experiment: Western blot for accumulation of poly-ubiquitinated proteins, ECC1; type: cell-based
Protocol: (§11) Total cellular protein (10-20 μg) from each sample was separated by SDS-PAGE, transferred to PVDF membranes and subjected to Western blot analysis. Antibodies for Western blot analysis were obtained by the following commercial sources: anti-USP14 (Bethyl Laboratories), anti-ubiquitin (Santa Cruz Biotechnology), anti-β-actin (Sigma). Peroxidase-linked anti-mouse Immunoglobulin G and peroxidase-linked anti-rabbit Immunoglobulin G were from Amersham.
(§12) USP14 is a proteasome-associated deubiquitinating enzyme whose role is to remove ubiquitin molecules from targeted proteins prior to degradation by the 20S catalytic activities of the proteasome. […] Thus, the consequences of USP14 inhibition on ubiquitin-dependent protein degradation in endometrial cancer cells was investigated. To this end, ECC1 and HEC155 cells were exposed to 150 nM or 250 nM VLX1570, respectively, over a period of 24 hours and the effect on cellular protein ubiquitination was evaluated by Western blot analysis after 0, 2, 8 or 12 hours from drug exposure. […] Quantifications of the changes in high molecular weight ubiquitin species in each respective cell line, versus control, are given in FIGS. 5B and 5D (top panels).
(§13) Next, endometrial cancer cell lines were exposed to increasing concentrations of VLX1570 ([…] for ECC1 and HEC155, respectively) over a period of 24 hours. The effect on accumulation of poly-ubiquitinated proteins was evaluated by Western blot. […] Quantifications of the changes in high-molecular weight ubiquitin species in dose-dependent fashion are given in FIGS. 5B and 5D (bottom panels).

[6] = tested on: ubiquitin-dependent protein degradation in HEC155 cells; experiment: Western blot for accumulation of poly-ubiquitinated proteins, HEC155; type: cell-based
Protocol: as §11, §12, §13

[7] = tested on: COV362 ovarian cancer cells; experiment: Cell viability of sensitive and carboplatin-resistant COV362; type: cell-based
Protocol: as §8, §9, §10

[8] = tested on: ECC1 endometrial cancer cells; experiment: Apoptosis by flow cytometry (active caspase-3, Annexin V, propidium iodide), ECC1; type: cell-based
Protocol: as §1, §3, §4

[9] = tested on: ECC1 endometrial cancer cells; experiment: Cell cycle distribution by propidium iodide flow cytometry, ECC1; type: cell-based; conditions: ECC1, 300 nM, 24 hours
Protocol: as §1, §2

[10] = tested on: HEC155 endometrial cancer cell line; experiment: Cell viability assay (WST-1), HEC155; type: cell-based; conditions: for IC50: HEC155, 48 hours exposure
Protocol: as §5, §6, §7

[11] = tested on: ECC1 endometrial cancer cell line; experiment: Multi-step carboplatin chemoresistance model, ECC1; type: cell-based
Description: USP14 is co-expressed with ETM makers during the multi-stage process leading to chemoresistance. Acquisition of aggressive phenotype and chemoresistance is a multi-stage process whereby the subpopulation of cells surviving drug treatment give rise to cells characterized by increased in migratory behavior, proliferation rate and chemoresistance via a transition accompanied by increase in stem cell and epithelial-mesenchymal transition (EMT) markers. This model was recapitulated in ECC1 endometrial cancer cell line and the temporal USP14 expression was evaluated during this multi-step process. Specifically. ECC1 cells were exposed to two rounds of carboplatin treatment (20 μM) over the period of two weeks. The first round resulted with approx. 60% of cell death. The second round resulted with approx. 90% of cell death. Consistent with what previously shown, the surviving population was characterized by giant, polyploidy, chemoresistant cells whose numbers remained similar over the course of the following two weeks. […] Next, the expression levels of USP14 and the EMT marker vimentin were evaluated in the initial population (chemosensitive tumor) and in two of the chemoresistant clones. USP14 overexpression is temporally associated to the expression of the EMT marker vimentin.

[12] = tested on: carboplatin sensitive cancer cells; experiment: Multi-step carboplatin chemoresistance model in vitro (Example 2); type: cell-based; conditions: 10 μM, two rounds over two weeks
Protocol: Multi-step process leading to recurrence can be recapitulated in vitro and results with up-regulation of USP14. Carboplatin chemoresistance was recapitulated in vitro according to the model schematized in FIG. 9. Specifically, carboplatin sensitive cancer cells were exposed to two rounds of carboplatin treatment (10 μM) over the period of two weeks. The first round resulted with approx. 60% of cell death. The second round resulted with approx. 90% of cell death. This is consistent with the dramatic reduction in tumor burden in chemosensitive patients treated with neoadjuvant chemotherapy. […] As shown in FIG. 9 the chemotherapy surviving population was characterized by stem like giant, polyploidy, chemoresistant cells whose numbers remained similar over the course of the following two weeks. This population was the precursor of clones of cells that survived in presence of carboplatin. Strikingly, when the expression levels of USP14 and the […] marker vimentin were evaluated in the initial population (chemosensitive tumor) and in two of the chemoresistant clones isolated. USP14 overexpression is temporally associated to over-expression of the […] marker, vimentin.

[13] = tested on: cisplatin resistant ovarian cancer cell lines HEY and OVCA-3 and primary cells from patients with recurrent and resistant disease; experiment: Cell viability (XTT) of chemoresistant ovarian cancer cells exposed to USP14 inhibitor; type: cell-based, human; conditions: increasing concentrations, 48 hours
Protocol: Inhibition of USP14 selectively kills ovarian cancer cell lines resistant to cisplatin and primary ovarian cancer cells derived from patients with recurrent and chemoresistant disease. Sensitivity to inhibition of USP14 was evaluated in exponentially growing human fibroblasts, in the exponentially growing cisplatin resistant ovarian cancer cell lines HEY and OVCA-3 and in two exponentially growing primary cells derived from patient with recurrent and resistant (to carboplatin) disease. Primary cells were obtained according to a method recently described in two manuscripts.

ovarian cancer cells = experiment: Active caspase-3 levels in ovarian cancer cells; type: cell-based; conditions: increasing concentrations
[14] = read-out: IC50, inhibition of cell viability
[15] = read-out: IC50 for carboplatin, cell viability
[16] = ECC1, 20 μM, two rounds over two weeks

## C=CC(=O)N1CC/C(=C\c2ccc(F)c([N+](=O)[O-])c2)C(=O)/C(=C/c2ccc(F)c([N+](=O)[O-])c2)C1 [VLX1570]
[1]
  percentage of cells in the G2/M phase versus controls: increase in the percentage of cells in the G2/M phase
[2]; HEC155, 300 nM, 24 hours
  Annexin V staining cells: increase of Annexin V staining cells
  fraction of cells taking up propidium iodide: elevated
[2]; HEC155, 24 hours, versus mock
  levels of active caspase-3: increased levels of active caspase-3
[3]; ECC1
  anti-proliferative concentration, times lower than that required for carboplatin: 800 times
[3]; [14]
  IC50: 0.118 µM
[4]; carboplatin-resistant ES-2
  killing concentration, fold lower than the one required with carboplatin: approx. 10 fold
[4]; carboplatin-resistant ES-2 clones, 48 hours, read-out: IC50, inhibition of cell viability
  IC50: 7.11 µM
[5]; ECC1, 0-150 μM, 24 hours
  inhibition of ubiquitin-dependent protein degradation (dose course): dose-dependent inhibition of ubiquitin-dependent protein degradation
[5]; ECC1, 150 nM
  start of accumulation of poly-ubiquitinated proteins after drug exposure: two
[5]; ECC1, 150 nM, 0, 2, 8 or 12 hours
  accumulation of poly-ubiquitinated proteins (time course): dose-dependent accumulation of poly-ubiquitinated proteins
[6]; HEC155, 0-250 μM, 24 hours
  inhibition of ubiquitin-dependent protein degradation (dose course): dose-dependent inhibition of ubiquitin-dependent protein degradation
[6]; HEC155, 250 nM
  start of accumulation of poly-ubiquitinated proteins after drug exposure: two
[6]; HEC155, 250 nM, 0, 2, 8 or 12 hours
  accumulation of poly-ubiquitinated proteins (time course): dose-dependent accumulation of poly-ubiquitinated proteins
[7]; carboplatin-resistant COV362
  killing concentration, fold lower than the one required with carboplatin: approx. 10 fold
[7]; carboplatin-resistant COV362 clones, 48 hours, read-out: IC50, inhibition of cell viability
  IC50: 8.76 µM
[8]; ECC1, 300 nM, 24 hours
  Annexin V staining cells: increase of Annexin V staining cells
  fraction of cells taking up propidium iodide: elevated
[8]; ECC1, 24 hours, versus mock
  levels of active caspase-3: increased levels of active caspase-3
[9]
  percentage of cells in the G2/M phase, treated versus control: nearly double
[10]; HEC155
  anti-proliferative concentration, times lower than that required for carboplatin: 500 times
[10]; [14]
  IC50: 0.182 µM

## N.N.O=C([O-])C1(C(=O)[O-])CCC1.[Pt+2] [carboplatin]
[3]; [15]
  IC50: 97.6 µM
[4]; ES-2, 48 hours exposure
  decrease in carboplatin sensitivity, resistant versus sensitive cells: > 3 fold
[11]; [16]
  cell death, first round of carboplatin treatment: approx. 60%
  cell death, second round of carboplatin treatment: approx. 90%
[11]; ECC1 chemoresistant clones
  IC50 of chemoresistant clones as compared to the initial population: > 3 fold
[7]; COV-362, 48 hours exposure
  decrease in carboplatin sensitivity, resistant versus sensitive cells: > 4 fold
[10]; [15]
  IC50: 77.5 µM
[12]
  cell death, first round of carboplatin treatment: approx. 60%
  cell death, second round of carboplatin treatment: approx. 90%

## O=C1/C(=C/c2ccc([N+](=O)[O-])cc2)CNC/C1=C\c1ccc([N+](=O)[O-])cc1 [RA-9, (3E, 5E)-3,5-bis(nitrobenzylidene)piperidin-4-one]
[13]
  effect on cell viability of chemoresistant ovarian cancer cells: killed chemoresistant ovarian cancer cells
Ovarian cancer cells
  Caspase-3 activation: activation of Caspase-3
